Data taken from publication PMC6934184, “Selective DNA-PKcs inhibition extends the therapeutic index of localized radiotherapy and chemotherapy” (The Journal of Clinical Investigation, 2019).

Target: T1, STK25 (YSK1) (Homo sapiens, UniProt O00506)
T1 construct: purchased Thermo Fisher Scientific (Life Technologies) SelectScreen
Experiment: SelectScreen Z'LYTE
Assay type: biochemical
Method in brief: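 Percent values come from Thermo SelectScreen profiling of NU5455, combining activity and binding assays. CSF1R was run in Z'LYTE format at Km app ATP, and CAMK1 in Adapta format with ATP listed at 10.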

T1 sequence (O00506 whole entry): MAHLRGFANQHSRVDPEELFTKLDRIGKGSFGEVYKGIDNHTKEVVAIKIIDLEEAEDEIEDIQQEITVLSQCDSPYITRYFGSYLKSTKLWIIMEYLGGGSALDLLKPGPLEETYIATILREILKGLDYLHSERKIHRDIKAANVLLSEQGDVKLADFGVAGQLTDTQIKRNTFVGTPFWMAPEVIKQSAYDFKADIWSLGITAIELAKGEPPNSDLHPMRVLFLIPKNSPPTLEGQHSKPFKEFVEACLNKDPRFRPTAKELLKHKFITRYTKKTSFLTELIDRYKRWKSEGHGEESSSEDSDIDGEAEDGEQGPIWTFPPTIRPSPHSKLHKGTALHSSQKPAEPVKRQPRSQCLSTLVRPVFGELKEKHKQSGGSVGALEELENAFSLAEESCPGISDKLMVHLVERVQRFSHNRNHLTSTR

CN(C(=O)CN1CCOCC1)c1ccc2sc3c(-c4cccc5c(=O)cc(N6CC7CCC(C6)O7)oc45)cccc3c2c1 [NU5455]
inhibition at 1 µM: -11.4%
